Assays:
[1] = molecular target: Glycogen synthase kinase-3 beta (Homo sapiens, UniProt P49841); experiment: Inhibitory activity against GSK3-beta
[2] = molecular target: Cyclin-dependent kinase 2 (Homo sapiens, UniProt P24941); experiment: Inhibitory activity against CDK2

Sequence of Glycogen synthase kinase-3 beta (P49841 whole entry): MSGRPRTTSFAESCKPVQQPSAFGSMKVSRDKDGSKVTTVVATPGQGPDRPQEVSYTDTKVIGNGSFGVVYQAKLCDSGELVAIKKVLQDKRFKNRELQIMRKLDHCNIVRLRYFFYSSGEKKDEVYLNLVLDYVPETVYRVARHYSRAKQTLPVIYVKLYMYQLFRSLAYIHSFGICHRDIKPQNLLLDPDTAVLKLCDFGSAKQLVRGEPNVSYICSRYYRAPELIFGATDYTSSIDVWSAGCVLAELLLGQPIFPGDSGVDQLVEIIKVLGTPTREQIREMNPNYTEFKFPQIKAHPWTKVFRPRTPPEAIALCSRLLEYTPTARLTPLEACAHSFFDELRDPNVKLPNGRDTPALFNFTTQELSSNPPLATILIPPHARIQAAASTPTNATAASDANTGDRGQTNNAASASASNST

Row | IC50 [1] [nM] | IC50 [2] [nM] | SMILES
1 | 100 | 96000 | NC1=NONC1N1N=NC(C(=O)N/N=C/c2ccncc2)C1CN1CCCCC1 (centres undefined)
2 | 280 | > 250000 | NC1=NONC1N1N=NC(c2nnc(-c3ccncc3)[nH]2)C1CN1CCCCC1 (centres undefined)

Reference: ChEMBL document CHEMBL1141936, “Structural basis for the GSK-3beta binding affinity and selectivity against CDK-2 of 1-(4-aminofurazan-3yl)-5-dialkylaminomethyl-1H-[1,2,3] triazole-4-carboxylic acid derivatives” (Bioorg Med Chem Lett, 2005)
